Laboratory results published in US11109593B2, “Isoxazolin-5-one derivative and herbicide containing same as active ingredient” (HOKKO CHEMICAL INDUSTRY CO., LTD., priority 2017, dated 2021).

test system: Scirpus juncoides; experiment: Test Example 2: herbicidal effect test by treatment during growing period in paddy rice cultivation (seven days after seeding); format: in vivo; settings: 120 g/10a active ingredient, assessed 14 days after treatment, dry weight vs untreated area
Outline: (§1)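 Seeds sown 0–1 cm deep in puddled, fertilised paddy soil with about 3 cm standing water in a glass greenhouse. Diluted emulsion dropped into the water seven days after seeding at 120 g active ingredient per 10 ares. Herbicidal rate (%) from mean dry weight vs untreated, duplicate, 14 days after treatment.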

SMILES | Herbicidal rate (%) Scirpus juncoides [%]
Cc1c(Cc2ccccc2N(S(C)(=O)=O)S(=O)(=O)C(F)(F)F)c(=O)on1C(C)C [Compound 1-888] | 90
C=CCOC(=O)N(c1ccccc1Cc1c(C)n(CC(C)C)oc1=O)S(=O)(=O)C(F)(F)F [Compound 1-707] | 90

test system: Echinochloa crus-galli; experiment: as above; format: in vivo; settings: 120 g/10a active ingredient, assessed 14 days after treatment, dry weight vs untreated area
Outline: as §1

SMILES | Herbicidal rate (%) Echinochloa crus-galli [%]
Cc1c(Cc2ccccc2N(S(C)(=O)=O)S(=O)(=O)C(F)(F)F)c(=O)on1C(C)C [Compound 1-888] | 90
C=CCOC(=O)N(c1ccccc1Cc1c(C)n(CC(C)C)oc1=O)S(=O)(=O)C(F)(F)F [Compound 1-707] | 90

test system: broad leaf weeds (Lindernia pyxidaria and Monochoria vaginalis); experiment: as above; format: in vivo; settings: Lindernia pyxidaria, 120 g/10a active ingredient, assessed 14 days after treatment, dry weight vs untreated area
Outline: as §1

SMILES | Herbicidal rate (%) Lindernia pyxidaria [%]
Cc1c(Cc2ccccc2N(S(C)(=O)=O)S(=O)(=O)C(F)(F)F)c(=O)on1C(C)C [Compound 1-888] | 80
C=CCOC(=O)N(c1ccccc1Cc1c(C)n(CC(C)C)oc1=O)S(=O)(=O)C(F)(F)F [Compound 1-707] | 90

same assay, conditions: Monochoria vaginalis, 120 g/10a active ingredient, assessed 14 days after treatment, dry weight vs untreated area

SMILES | Herbicidal rate (%) Monochoria vaginalis [%]
Cc1c(Cc2ccccc2N(S(C)(=O)=O)S(=O)(=O)C(F)(F)F)c(=O)on1C(C)C [Compound 1-888] | 100
C=CCOC(=O)N(c1ccccc1Cc1c(C)n(CC(C)C)oc1=O)S(=O)(=O)C(F)(F)F [Compound 1-707] | 90

test system: Echinochloa crus-galli; experiment: Test Example 4: herbicidal effect test by treatment of leave and stem in dry field farming (seven days after seeding); format: in vivo; settings: 120 g/10a active ingredient; emulsion sprayed seven days after seeding; evaluated 14 days after treatment
Outline: (§2)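 Twenty seeds per species were mixed into the top 1 cm of alluvial soil in 36 cm^2 pots; emulsions were sprayed seven days after seeding at 100 L per 10 ares (120 g active ingredient per 10 ares). Herbicidal rate (%) = {1 − treated/untreated mean dry weight} × 100, 14 days after treatment, duplicate.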

SMILES | herbicidal effect (herbicidal rate), Echinochloa crus-galli [%]
Cc1c(Cc2ccccc2N(S(C)(=O)=O)S(=O)(=O)C(F)(F)F)c(=O)on1C(C)C [Compound 1-888] | 80
C=CCOC(=O)N(c1ccccc1Cc1c(C)n(CC(C)C)oc1=O)S(=O)(=O)C(F)(F)F [Compound 1-707] | 90

test system: Chenopodium album; experiment: as above; format: in vivo; settings: 120 g/10a active ingredient; emulsion sprayed seven days after seeding; evaluated 14 days after treatment
Outline: as §2

SMILES | herbicidal effect (herbicidal rate), Chenopodium album [%]
Cc1c(Cc2ccccc2N(S(C)(=O)=O)S(=O)(=O)C(F)(F)F)c(=O)on1C(C)C [Compound 1-888] | 40
C=CCOC(=O)N(c1ccccc1Cc1c(C)n(CC(C)C)oc1=O)S(=O)(=O)C(F)(F)F [Compound 1-707] | 40

test system: southern crabgrass; experiment: as above; format: in vivo; settings: 120 g/10a active ingredient; emulsion sprayed seven days after seeding; evaluated 14 days after treatment
Outline: as §2

SMILES | herbicidal effect (herbicidal rate), southern crabgrass [%]
Cc1c(Cc2ccccc2N(S(C)(=O)=O)S(=O)(=O)C(F)(F)F)c(=O)on1C(C)C [Compound 1-888] | 40
C=CCOC(=O)N(c1ccccc1Cc1c(C)n(CC(C)C)oc1=O)S(=O)(=O)C(F)(F)F [Compound 1-707] | 90

test system: Amaranthus viridis; experiment: as above; format: in vivo; settings: 120 g/10a active ingredient; emulsion sprayed seven days after seeding; evaluated 14 days after treatment
Outline: as §2

SMILES | herbicidal effect (herbicidal rate), Amaranthus viridis [%]
Cc1c(Cc2ccccc2N(S(C)(=O)=O)S(=O)(=O)C(F)(F)F)c(=O)on1C(C)C [Compound 1-888] | 40
C=CCOC(=O)N(c1ccccc1Cc1c(C)n(CC(C)C)oc1=O)S(=O)(=O)C(F)(F)F [Compound 1-707] | 40

test system: Echinochloa crus-galli; experiment: Test Example 3: herbicidal effect test by treatment of dry field farming soil (one day after seeding); format: in vivo; settings: 120 g/10a active ingredient, evaluated 14 days after treatment
Outline: (§3)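 Alluvial dry-field soil in pots, top 1 cm mixed with 20 seeds per weed species. One day after seeding, the water-diluted emulsion was sprayed onto the soil surface at 100 L per 10 ares (120 g active ingredient per 10 ares). Duplicate pots; herbicidal rate (%) from plant dry weight versus untreated, 14 days after treatment.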

SMILES | herbicidal rate, Echinochloa crus-galli [%]
Cc1c(Cc2ccccc2N(S(C)(=O)=O)S(=O)(=O)C(F)(F)F)c(=O)on1C(C)C [Compound 1-888] | 90
C=CCOC(=O)N(c1ccccc1Cc1c(C)n(CC(C)C)oc1=O)S(=O)(=O)C(F)(F)F [Compound 1-707] | 90

test system: Chenopodium album; experiment: as above; format: in vivo; settings: 120 g/10a active ingredient, evaluated 14 days after treatment
Outline: as §3

SMILES | herbicidal rate, Chenopodium album [%]
Cc1c(Cc2ccccc2N(S(C)(=O)=O)S(=O)(=O)C(F)(F)F)c(=O)on1C(C)C [Compound 1-888] | 60
C=CCOC(=O)N(c1ccccc1Cc1c(C)n(CC(C)C)oc1=O)S(=O)(=O)C(F)(F)F [Compound 1-707] | 90

test system: southern crabgrass; experiment: as above; format: in vivo; settings: 120 g/10a active ingredient, evaluated 14 days after treatment
Outline: as §3

SMILES | herbicidal rate, southern crabgrass [%]
Cc1c(Cc2ccccc2N(S(C)(=O)=O)S(=O)(=O)C(F)(F)F)c(=O)on1C(C)C [Compound 1-888] | 70
C=CCOC(=O)N(c1ccccc1Cc1c(C)n(CC(C)C)oc1=O)S(=O)(=O)C(F)(F)F [Compound 1-707] | 90

test system: Amaranthus viridis; experiment: as above; format: in vivo; settings: 120 g/10a active ingredient, evaluated 14 days after treatment
Outline: as §3

SMILES | herbicidal rate, Amaranthus viridis [%]
Cc1c(Cc2ccccc2N(S(C)(=O)=O)S(=O)(=O)C(F)(F)F)c(=O)on1C(C)C [Compound 1-888] | 40
C=CCOC(=O)N(c1ccccc1Cc1c(C)n(CC(C)C)oc1=O)S(=O)(=O)C(F)(F)F [Compound 1-707] | 90

test system: Scirpus juncoides; experiment: Test Example 1: herbicidal effect test by treatment of rice paddy soil (immediately after seeding); format: in vivo; settings: 120 g/10a active ingredient, dry weight vs untreated area, 14 days after treatment
Outline: (§4)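 Pre-emergence paddy water application, 120 g a.i./10 ares, applied immediately post-seeding into ~3 cm flood; glasshouse; duplicate pots; dry weight at 14 d → % inhibition = (1 − treated/untreated) × 100.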

SMILES | Herbicidal rate (%) Scirpus juncoides [%]
Cc1c(Cc2ccccc2N(S(C)(=O)=O)S(=O)(=O)C(F)(F)F)c(=O)on1C(C)C [Compound 1-888] | 90
C=CCOC(=O)N(c1ccccc1Cc1c(C)n(CC(C)C)oc1=O)S(=O)(=O)C(F)(F)F [Compound 1-707] | 90

test system: Echinochloa crus-galli; experiment: as above; format: in vivo; settings: 120 g/10a active ingredient, dry weight vs untreated area, 14 days after treatment
Outline: as §4

SMILES | Herbicidal rate (%) Echinochloa crus-galli [%]
Cc1c(Cc2ccccc2N(S(C)(=O)=O)S(=O)(=O)C(F)(F)F)c(=O)on1C(C)C [Compound 1-888] | 100
C=CCOC(=O)N(c1ccccc1Cc1c(C)n(CC(C)C)oc1=O)S(=O)(=O)C(F)(F)F [Compound 1-707] | 90

test system: broad leaf weeds (Lindernia pyxidaria and Monochoria vaginalis); experiment: as above; format: in vivo; settings: Lindernia pyxidaria, 120 g/10a active ingredient, dry weight vs untreated area, 14 days after treatment
Outline: as §4

SMILES | Herbicidal rate (%) Lindernia pyxidaria [%]
Cc1c(Cc2ccccc2N(S(C)(=O)=O)S(=O)(=O)C(F)(F)F)c(=O)on1C(C)C [Compound 1-888] | 100
C=CCOC(=O)N(c1ccccc1Cc1c(C)n(CC(C)C)oc1=O)S(=O)(=O)C(F)(F)F [Compound 1-707] | 90

same assay, conditions: Monochoria vaginalis, 120 g/10a active ingredient, dry weight vs untreated area, 14 days after treatment

SMILES | Herbicidal rate (%) Monochoria vaginalis [%]
Cc1c(Cc2ccccc2N(S(C)(=O)=O)S(=O)(=O)C(F)(F)F)c(=O)on1C(C)C [Compound 1-888] | 90
C=CCOC(=O)N(c1ccccc1Cc1c(C)n(CC(C)C)oc1=O)S(=O)(=O)C(F)(F)F [Compound 1-707] | 90
